Measurements: US8835509B2, “Self emulsifying drug delivery system for a curcuminoid based composition” (Arbro Pharmaceuticals Ltd., priority 2010, dated 2014)
≈ marks a conversion by molar mass, not a printed value. Read-outs that look alike come from different tables or passages of the source.

Columns and labels:
[1] = Solubility test of curcumin in oils, surfactants, milk, BSA and casein; type: physicochemical; details: thermodynamic from solid
Description: The solubility of curcumin in a number of oils such as citronella oil, castor oil, ethyl oleate, and palm rose oil, coconut oil, CAPRYOL™ 90 and a number of surfactants such as TWEEN® 80, CREMOPHOR® EL, PEG 200 and TRANSCUTOL® HP were determined in order to find out the appropriate oils and surfactants as compositions of SNEDDS. Solubility was also determined in milk, BSA and casein.
An excess amount of curcumin was added to 5 ml of oil or surfactant solutions. The resultant mixture was shaken reciprocally at 37° C. for 72 h, followed by centrifugation at 12000 rpm for 10 min. The supernatant was filtered through a membrane filter (0.45 μm) to remove the remaining insoluble curcumin. After the appropriate dilution with methanol, the drug concentration in the filtrate was quantified by HPLC.

[2] = rat intestine in vitro, cited from earlier work
[3] = rats, oral administration of 400 mg of curcumins, cited from earlier work

Q: What does the source list for `COc1cc(/C=C/C(=O)/C=C(O)/C=C/c2ccc(O)c(OC)c2)ccc1O` [Curcumin, curcumin]?
A: solubility at 72 h ([1]; 37 °C, plasma or biological fluid, in Casein, read-out: Solubility of Curcumin in milk, BSA and Casein): 14 µg/mL (≈ 0.038 mM); solubility at 72 h ([1]; 37 °C, plasma or biological fluid, in Milk, read-out: Solubility of Curcumin in milk, BSA and Casein): 23800 µg/mL (≈ 64.5 mM); solubility at 72 h ([1]; Almond oil, oil or lipid, in Almond, 37° C., 72 h, read-out: Solubility of Curcumin in oils, Sol): 1250 µg/mL (≈ 3.39 mM); solubility at 72 h ([1]; Castor oil, oil or lipid, in Castor, 37° C., 72 h, read-out: Solubility of Curcumin in oils, Sol): 4420 µg/mL (≈ 12 mM); solubility at 72 h ([1]; Citronella oil, oil or lipid, in Citronella, 37° C., 72 h, read-out: Solubility of Curcumin in oils, Sol): 13200 µg/mL (≈ 35.8 mM); solubility at 72 h ([1]; Lavender oil, oil or lipid, in Lavender, 37° C., 72 h, read-out: Solubility of Curcumin in oils, Sol): 3440 µg/mL (≈ 9.35 mM); solubility at 72 h ([1]; Palm Rose oil, oil or lipid, in Palm Rose, 37° C., 72 h, read-out: Solubility of Curcumin in oils, Sol): 6030 µg/mL (≈ 16.4 mM); solubility at 72 h ([1]; aqueous with cosolvent or surfactant or cyclodextrin, in TWEEN® 60 (100% conc), 37° C., 72 h, read-out: Solubility of Curcumin in surfactants, Sol): 34 µg/mL (≈ 0.0923 mM); solubility at 72 h ([1]; aqueous with cosolvent or surfactant or cyclodextrin, in TWEEN® 80 (100% conc), 37° C., 72 h, read-out: Solubility of Curcumin in surfactants, Sol): 484 µg/mL (≈ 1.31 mM); solubility at 72 h ([1]; bovine, 37 °C, plasma or biological fluid, in BSA, read-out: Solubility of Curcumin in milk, BSA and Casein): 24 µg/mL (≈ 0.0651 mM); solubility at 72 h ([1]; coconut oil, oil or lipid, in Cocconut Oil, 37° C., 72 h, read-out: Solubility of Curcumin in oils, Sol): 1680 µg/mL (≈ 4.57 mM); solubility at 72 h ([1]; oil or lipid, in Arachis Oil, 37° C., 72 h, read-out: Solubility of Curcumin in oils, Sol): 160 µg/mL (≈ 0.434 mM); solubility at 72 h ([1]; oil or lipid, in CAPRYOL™ 90, 37° C., 72 h, read-out: Solubility of Curcumin in oils, Sol): 7580 µg/mL (≈ 20.6 mM); solubility at 72 h ([1]; oil or lipid, in Emu oil, 37° C., 72 h, read-out: Solubility of Curcumin in oils, Sol): 1580 µg/mL (≈ 4.3 mM); solubility at 72 h ([1]; oil or lipid, in Ethyl Oleate, 37° C., 72 h, read-out: Solubility of Curcumin in oils, Sol): 589 µg/mL (≈ 1.6 mM); solubility at 72 h ([1]; oil or lipid, in Glyc Mono ol, 37° C., 72 h, read-out: Solubility of Curcumin in oils, Sol): 154 µg/mL (≈ 0.418 mM); solubility at 72 h ([1]; oil or lipid, in IPM, 37° C., 72 h, read-out: Solubility of Curcumin in oils, Sol): 1130 µg/mL (≈ 3.06 mM); solubility at 72 h ([1]; oil or lipid, in Labrafilm F 1944, 37° C., 72 h, read-out: Solubility of Curcumin in oils, Sol): 2560 µg/mL (≈ 6.95 mM); solubility at 72 h ([1]; oil or lipid, in Labrafilm F2125, 37° C., 72 h, read-out: Solubility of Curcumin in oils, Sol): 3590 µg/mL (≈ 9.75 mM); solubility at 72 h ([1]; oil or lipid, in Lauroglycol, 37° C., 72 h, read-out: Solubility of Curcumin in oils, Sol): 2610 µg/mL (≈ 7.09 mM); solubility at 72 h ([1]; oil or lipid, in Light Paraffin, 37° C., 72 h, read-out: Solubility of Curcumin in oils, Sol): 7 µg/mL (≈ 0.019 mM); solubility at 72 h ([1]; oil or lipid, in Linseed Oil, 37° C., 72 h, read-out: Solubility of Curcumin in oils, Sol): 277 µg/mL (≈ 0.752 mM); solubility at 72 h ([1]; olive oil, oil or lipid, in Oilve, 37° C., 72 h, read-out: Solubility of Curcumin in oils, Sol): 501 µg/mL (≈ 1.36 mM); solubility at 72 h ([1]; organic solvent or mixture, in CREMOPHOR® EL (100% conc), 37° C., 72 h, read-out: Solubility of Curcumin in surfactants, Sol): 36600 µg/mL (≈ 99.4 mM); solubility at 72 h ([1]; organic solvent or mixture, in CREMOPHOR® RH (100% conc), 37° C., 72 h, read-out: Solubility of Curcumin in surfactants, Sol): 38700 µg/mL (≈ 105 mM); solubility at 72 h ([1]; organic solvent or mixture, in LABRASOL® (100% conc), 37° C., 72 h, read-out: Solubility of Curcumin in surfactants, Sol): 846 µg/mL (≈ 2.3 mM); solubility at 72 h ([1]; organic solvent or mixture, in PEG 200 (100% conc), 37° C., 72 h, read-out: Solubility of Curcumin in surfactants, Sol): 1040 µg/mL (≈ 2.84 mM); solubility at 72 h ([1]; organic solvent or mixture, in PEG 400 (100% conc), 37° C., 72 h, read-out: Solubility of Curcumin in surfactants, Sol): 512 µg/mL (≈ 1.39 mM); solubility at 72 h ([1]; organic solvent or mixture, in PEG 600 (100% conc), 37° C., 72 h, read-out: Solubility of Curcumin in surfactants, Sol): 123 µg/mL (≈ 0.334 mM); solubility at 72 h ([1]; organic solvent or mixture, in TRANSCUTOL® HP (100% conc), 37° C., 72 h, read-out: Solubility of Curcumin in surfactants, Sol): 96400 µg/mL (≈ 262 mM); absorption of curcumin ([2]; present as micelles): 56%; absorption of curcumin ([2]; present in a free form): 47%; curcumin in portal blood ([3]; 15 minute to 24 hour after administration): trace amount; curcumin in heart blood [3]: no curcumin was found
